Measured values from ChEMBL document CHEMBL6109146, “Discovery of New Pyrazolone Carbothioamide Derivatives as Potent Antifungal Agents for the Treatment of Candidiasis and Cryptococcosis” (J Med Chem, 2025).
Converted amounts (≈) assume the structure as drawn. The source made the active and inactive calls. No cut-off for these calls is given here.

Tests used:
[1] = Cmax in male ICR mouse at 2 mg/kg, iv measured after 24 hrs by LC-MS/MS analysis; assay type: ADME, organism-based; conditions: in vivo
[2] = Tmax in male ICR mouse at 20 mg/kg, po measured after 24 hrs by LC-MS/MS analysis; assay type: ADME, organism-based; conditions: in vivo
[3] = Cmax in male ICR mouse at 20 mg/kg, po measured after 24 hrs by LC-MS/MS analysis; assay type: ADME, organism-based; conditions: in vivo
[4] = Oral bioavailability in male ICR mouse at 20 mg/kg measured after 24 hrs by LC-MS/MS analysis; assay type: ADME, organism-based; conditions: in vivo
[Candida] auris [5] = Antifungal activity against Candida auris 0029 assessed as inhibition of fungal growth incubated for 48 to 72 hrs by microplate reader analysis; assay type: functional, organism-based; conditions: Candidozyma auris, time 48-72 hrs
[Candida] auris [6] = Antifungal activity against Candida auris 0030 assessed as inhibition of fungal growth incubated for 48 to 72 hrs by microplate reader analysis; assay type: functional, organism-based; conditions: Candidozyma auris, time 48-72 hrs
Cryptococcus neoformans [7] = test: Antifungal activity against Cryptococcus neoformans H99 assessed as inhibition of fungal growth incubated for 48 to 72 hrs by microplate reader analysis; assay type: functional; conditions: time 48-72 hrs
Cryptococcus neoformans [8] = test: Antifungal activity against Cryptococcus neoformans 011409 assessed as inhibition of fungal growth incubated for 48 to 72 hrs by microplate reader analysis; assay type: functional; conditions: time 48-72 hrs
Cryptococcus neoformans [9] = test: Antifungal activity against Cryptococcus neoformans HN-68 assessed as inhibition of fungal growth incubated for 48 to 72 hrs by microplate reader analysis; assay type: functional; conditions: time 48-72 hrs
[10] = Antifungal activity against Cryptococcus gattii 01063P assessed as inhibition of fungal growth incubated for 48 to 72 hrs by microplate reader analysis; assay type: functional; conditions: time 48-72 hrs
Nakaseomyces glabratus [11] = test: Antifungal activity against Candida glabrata 8535 assessed as inhibition of fungal growth incubated for 48 to 72 hrs by microplate reader analysis; assay type: functional; conditions: time 48-72 hrs
[12] = Cytotoxicity against human L02 cells assessed as inhibition of cell proliferation incubated for 48 hrs by WST-8 reagent based assay; assay type: toxicity
[13] = Cytotoxicity against HUVEC cells assessed as inhibition of cell proliferation incubated for 48 hrs by WST-8 reagent based assay; assay type: toxicity; conditions: human
Nakaseomyces glabratus [14] = test: Fungistatic activity against Candida glabrata 0161 assessed as inhibition of fungal growth at 0.031 microg/ml incubated up to 72 hrs by microplate reader analysis; assay type: functional, organism-based; conditions: dose 0.031 µg/ml
Cryptococcus neoformans [15] = test: Antifungal activity against Cryptococcus neoformans H99 assessed as inhibition of fungal growth at 0.031 microg/ml incubated for 72 hrs by microplate reader analysis; assay type: functional, organism-based; conditions: dose 0.031 µg/ml
Cryptococcus neoformans [16] = test: Antifungal activity against Cryptococcus neoformans H99 assessed as inhibition of fungal growth at <0.0078 microg/ml incubated for 72 hrs by microplate reader analysis; assay type: functional, organism-based; conditions: dose < 0.0078 µg/ml
Cryptococcus neoformans [17] = test: Fungicidal activity against Cryptococcus neoformans H99 at 32 microg/ml incubated for 72 hrs by time-kill kinetics analysis; assay type: functional, organism-based; conditions: dose 32.0 µg/ml
Nakaseomyces glabratus [18] = test: Fungicidal activity against Candida glabrata 0161 incubated for 48 hrs by time-kill kinetics analysis; assay type: functional
Nakaseomyces glabratus [19] = test: Antifungal activity against Candida glabrata 0161 assessed as inhibition of fungal growth at 32 microg/ml incubated for 48 hrs by spot-plating assay; assay type: functional, organism-based; conditions: dose 32.0 µg/ml
Cryptococcus neoformans [20] = test: Antifungal activity against Cryptococcus neoformans H99 assessed as inhibition of fungal growth at 4 microg/ml incubated for 48 hrs by spot-plating assay; assay type: functional, organism-based; conditions: dose 4.0 µg/ml
Nakaseomyces glabratus [21] = test: Antifungal activity against Candida glabrata 0161 assessed as inhibition of fungal growth at 0.5 to 32 microg/ml incubated for 48 hrs by spot-plating assay; assay type: functional, organism-based; conditions: dose 0.5-32 µg/ml
Cryptococcus neoformans [22] = test: Antifungal activity against Cryptococcus neoformans H99 assessed as inhibition of fungal growth at 0.5 to 4 microg/ml incubated for 48 hrs by spot-plating assay; assay type: functional, organism-based; conditions: dose 0.5-4 µg/ml
Nakaseomyces glabratus [23] = test: Inhibition of biofilm formation in Candida glabrata 0161 at 2 to 32 microg/ml incubated for 24 hrs by XTT reagent based assay; assay type: functional, organism-based; conditions: dose 2-32 µg/ml
Cryptococcus neoformans [24] = test: Inhibition of biofilm formation in Cryptococcus neoformans H99 at 32 microg/ml incubated for 24 hrs by XTT reagent based assay relative to control; assay type: functional
Nakaseomyces glabratus [25] = test: Inhibition of matured biofilm in Candida glabrata 0161 at 2 to 32 microg/ml incubated for 24 hrs by XTT reagent based assay; assay type: functional, organism-based; conditions: dose 2-32 µg/ml
Cryptococcus neoformans [26] = test: Inhibition of capsule formation in Cryptococcus neoformans H99 at 8 microg/ml incubated for 24 hrs by light microscopic analysis; assay type: functional
Cryptococcus neoformans [27] = test: Inhibition of urease production in Cryptococcus neoformans H99 at 0.125 microg/ml by photographic analysis relative to control; assay type: functional
Cryptococcus neoformans [28] = test: Induction of morphological changes in Cryptococcus neoformans H99 assessed as mitochondrial lysis at 4 microg/ml incubated for 8 hrs by transmission electron microscopic analysis; assay type: functional, organism-based; conditions: dose 4.0 µg/ml
Cryptococcus neoformans [29] = test: Induction of morphological changes in Cryptococcus neoformans H99 assessed as mitochondrial fragmentation at 4 microg/ml incubated for 8 hrs by transmission electron microscopic analysis; assay type: functional, organism-based; conditions: dose 4.0 µg/ml
Cryptococcus neoformans [30] = test: Upregulation of CAT1 gene expression in Cryptococcus neoformans H99 at 4 microg/ml incubated for 8 hrs by qRT-PCR analysis; assay type: functional; conditions: dose 4.0 µg/ml
Cryptococcus neoformans [31] = test: Upregulation of TRR1 gene expression in Cryptococcus neoformans H99 at 4 microg/ml incubated for 8 hrs by qRT-PCR analysis; assay type: functional; conditions: dose 4.0 µg/ml
Nakaseomyces glabratus [32] = test: Upregulation of TRX1 gene expression in Candida glabrata 0161 incubated for 8 hrs by qRT-PCR analysis; assay type: functional
Cryptococcus neoformans [33] = test: Antifungal activity against Cryptococcus neoformans H99 assessed as inhibition of fungal growth by measuring fold increase in MIC in presence of Fe(III) ion; assay type: functional
Cryptococcus neoformans [34] = test: Antifungal activity against Cryptococcus neoformans H99 assessed as inhibition of fungal growth in presence of 1 to 10 microg/ml Fe(II) ion; assay type: functional, organism-based
Cryptococcus neoformans [35] = test: Antifungal activity against Cryptococcus neoformans H99 assessed as inhibition of fungal growth in presence of 1 to 10 microg/ml Fe(III) ion; assay type: functional, organism-based
Nakaseomyces glabratus [36] = test: Antifungal activity against Candida glabrata 0161 assessed as inhibition of fungal growth in presence of Fe(III) ion; assay type: functional, organism-based
Nakaseomyces glabratus [37] = test: Antifungal activity against Candida glabrata 0161 assessed as inhibition of fungal growth in presence of 10% serum containing transferrin-bound ferric iron and free iron; assay type: functional, organism-based
Nakaseomyces glabratus [38] = test: Antifungal activity against Candida glabrata 0161 infected in candidiasis female ICR mouse model assessed as reduction in fungal burden in kidney at 20 mg/kg, po pre-infected with fungi for 3 hrs followed by compound administration and measured after 5 days; assay type: functional, organism-based; conditions: time 5.0 day
Nakaseomyces glabratus [39] = test: (§1) Antifungal activity against Candida glabrata 0161 infected in candidiasis female ICR mouse model assessed as tight arrangement of renal tubular epithelial cells at 20 mg/kg, ip pre-infected with fungi for 3 hrs followed by compound administration and measured after 5 days by H and E staining based analysis; assay type: functional, organism-based; conditions: time 5.0 day
Nakaseomyces glabratus [40] = test: as §1, with “reduction in detachment” for “tight arrangement”; assay type: functional, organism-based; conditions: time 5.0 day
Cryptococcus neoformans [41] = test: (§2) Antifungal activity against Cryptococcus neoformans H99 infected in cryptococcosis female ICR mouse model assessed as neat arrangement of neuronal cells at 5 to 20 mg/kg, ip pre-infected with fungi for 3 hrs followed by compound administration and measured after 5 days by H and E staining based analysis; assay type: functional, organism-based; conditions: dose 5-20 mg/kg, time 5.0 day
Cryptococcus neoformans [42] = test: as §2, with “reduction in cysts formation in brain cortex” for “neat arrangement of neuronal cells”, “5” for “5 to 20”; assay type: functional, organism-based; conditions: time 5.0 day

Nc1cc(=O)n(C(=S)Nc2ccc(C3CCCCC3)cc2)[nH]1
Cmax [1]: 2810 ng/mL
Tmax [2]: 15 min
Cmax [3]: 1720 ng/mL
bioavailability [4]: 22.6%
Activity ([Candida] auris [5]): Active
Activity ([Candida] auris [6]): Active
MIC80 (Cryptococcus neoformans [7]): 0.38 nM (≈ 0.12 ng/mL)
MIC80 (Cryptococcus neoformans [8]): 1.2 10^-4 ug/ml
MIC80 (Cryptococcus neoformans [9]): 1.2 10^-4 ug/ml
MIC80 [10]: 1.2 10^-4 ug/ml
MIC80 (Nakaseomyces glabratus [11]): 1.2 10^-4 ug/ml
IC50 at 48 h [12]: 13.9 µg/mL (≈ 44 µM)
IC50 at 48 h [13]: 0.64 µg/mL (≈ 2.02 µM)
Activity (Nakaseomyces glabratus [14]): Active; Significantly Better Activity Observed Than Fluconazole At 8 Microg/Ml
Activity (Cryptococcus neoformans [15]): Active; Significantly Better Inhibitory Effect Observed Than Fluconazole At 8.0 Microg/Ml
Activity (Cryptococcus neoformans [16]): Not active; Decrease In Inhibitory Potency Observed
Activity (Cryptococcus neoformans [17]): inactive
MFC (Nakaseomyces glabratus [18]): 2 µg/mL (≈ 6.32 µM)
Activity (Nakaseomyces glabratus [19]): Moderate_effect
Activity (Cryptococcus neoformans [20]): Moderate_effect
Activity (Nakaseomyces glabratus [21]): Active
Activity (Cryptococcus neoformans [22]): Active
inhibition (Nakaseomyces glabratus [23]): Moderate_effect
inhibition at 32 µg/mL (Cryptococcus neoformans [24]): 77%
inhibition (Nakaseomyces glabratus [25]): Moderate_effect
inhibition at 8 µg/mL (Cryptococcus neoformans [26]): 100%
inhibition at 0.125 µg/mL (Cryptococcus neoformans [27]): 100%
Activity (Cryptococcus neoformans [28]): Active
Activity (Cryptococcus neoformans [29]): Active
Activity (Cryptococcus neoformans [30]): Active
Activity (Cryptococcus neoformans [31]): Active
Activity (Nakaseomyces glabratus [32]): Active
fold change (FC) (Cryptococcus neoformans [33]): ~1000
Activity (Cryptococcus neoformans [34]): inactive
Activity (Cryptococcus neoformans [35]): inactive
Activity (Nakaseomyces glabratus [36]): inactive
Activity (Nakaseomyces glabratus [37]): inactive
Activity (Nakaseomyces glabratus [38]): Active
Activity (Nakaseomyces glabratus [39]): Active
Activity (Nakaseomyces glabratus [40]): Active
Activity (Cryptococcus neoformans [41]): Active
Activity (Cryptococcus neoformans [42]): Active
